Measured values: PubChem BioAssay AID1845206 (Molecular Pharmacology Branch, DTP, NCI, 2023)
Activity calls are given as the source filed them. How the source made its calls: active means viability on the fitted dose curve at most 10% of control; inactive means the rest.

System: NCI-H1618 multicellular tumor spheroid viability
Assay: Anticancer human tumor NCI-H1618 cell line growth inhibition;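 further: spheroids exposed to agents for 7 days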
Details: for IC50: curve of first compound; for viability, T/C: stronger effect = lower value
Excerpt: Multicellular complex tumor spheroid response to DNA repair inhibitors in combination with DNA-damaging drugs
This study explores the anticancer activities of DNA-damaging drugs and inhibitors of DNA damage repair, both as single agents and in combinations. Complex tumor spheroids comprised of malignant cells, endothelial cells and mesenchymal stem cells served as an in vitro model for human solid tumors. This model system incorporates physiologically relevant features and patient-derived or established malignant cell lines with clinically relevant genetic alterations from many tumor types. Twenty-six patient-derived or established malignant cell lines were evaluated representing sarcoma, melanoma, small cell lung cancer (SCLC), non-small cell lung cancer (NSCLC), as well as bladder, ovarian and pancreatic cancers. The concentration ranges selected for each drug and investigational agent were based upon clinically achievable concentrations if the clinical Cmax of the agent was known.
Compounds. The drugs and compounds olaparib (NSC753686), talazoparib (NSC767125), berzosertib (NSC777718), elimusertib (NSC800525), nedisertib (NSC802822), VX-984 (NSC792969), AZD-1390 (NSC803789), temozolomide (NSC362856), topotecan (NSC609699), trabectedin (NSC813783), staurosporine (NSC755774), and gemcitabine (NSC613327) were obtained from the National Cancer Institute (NCI) Developmental Therapeutics Program Chemical Repository. The FDA-approved anticancer drug set is available from the Developmental Therapeutics Program at https://dtp.cancer.gov/organization/dscb/obtaining/available_plates.htm. […] The stock solutions were prepared in dimethyl sulfoxide (DMSO, Sigma-Aldrich, St. Louis, MO, cat. D2650) at 400-fold the tested concentration and stored at -70 degrees C. Prior to their use, the stock solutions were diluted in fresh medium and the final DMSO concentration in the assay was 0.25% (v/v). All drugs and investigational agents were tested over a range starting from a high concentration at or near the clinical Cmax and decreasing in half-log increments. If the clinical Cmax for an agent had not been determined, the highest concentration tested was 10 microM.
Cell Lines. The patient-derived cancer cell (PDC) lines: 156681-154-R-J1-PDC, 283228-195-R-J1-PDC, 287954-098-R-J1-PDC, 292921-168-R-J2-PDC, 349418-098-R-PDC, 425362-245-T-J1-PDC, 556581-035-R-J1-PDC, and BL0293-F563-PDC were received from the NCI Patient-Derived Models Repository (PDMR, https://pdmr.cancer.gov). The established cell lines HS-SY-2 (RRID:CVCL_8719), MPNST, and SYO-1 (RRID:CVCL_7146) were obtained from the Sloan Kettering Institute. The alveolar soft parts sarcoma cell line ASPS-1 (RRID:CVCL_S738) was established at the NCI and grown from internal seed stocks. The following established cell lines were purchased from the American Type Culture Collection (ATCC, Manassas, VA): G-401 (ATCC, cat. CRL-1441, RRID:CVCL_0270), SW982 (ATCC, cat. HTB-93, RRID:CVCL_1734), VA-ES-BJ (ATCC, cat. CRL-2138, RRID:CVCL_1785), NCI-H719 (ATCC, cat. CRL-5837, RRID:CVCL_1582), NCI-H196 (ATCC, cat. CRL-5823, RRID:CVCL_1509), NCI-H841 (ATCC, cat. CRL-5845, RRID:CVCL_1595), NCI-H1618 (ATCC, cat. CRL-5879, RRID:CVCL_1480), NCI-H1876 (ATCC, cat. CRL-5902, RRID:CVCL_1503), DMS 114 (ATCC, cat. CRL-2066; RRID:CVCL_1174), NCI-H211 (ATCC, cat. CRL-5824; RRID:CVCL_1529), and SW 1271 (ATCC, cat. CRL-2177, RRID:CVCL_1716). The small cell lung cancer cell line COR-L88 was purchased from Sigma-Aldrich (cat. 92031917-1VL, RRID:CVCL_1141). The non-small cell lung cancer cell lines NCI-H226 (RRID:CVCL_1544) and NCI-H322M (RRID:CVCL_1557) were established at the NCI and grown from internal seed stocks. Pooled donor human umbilical vein endothelial cells (HUVEC, Lonza, cat. CC-2519) and human mesenchymal stem cells (hMSC, Lonza, cat. PT-2501) were purchased from Lonza (Walkersville, MD).
Cell Culture. All cells were maintained in an incubator at 37 degrees C and 5% CO2 with 95% humidity. […]

CC(C)n1c(=O)n(C)c2cnc3cc(F)c(-c4ccc(OCCCN5CCCCC5)nc4)cc3c21 + Cn1nnc2c(C(N)=O)ncn2c1=O
IC50 (second compound 1 µM): > 10000 nM
IC50 (second compound 3.16 µM): < 31.6 nM
IC50 (second compound 10 µM): < 31.6 nM
IC50 (second compound 31.6 µM): < 31.6 nM
IC50 (second compound 100 µM): 4440 nM
viability, T/C (second compound 1 µM, first compound 0.0316 µM): 82.9%
outcome (second compound 1 µM, first compound 0.1 µM): inactive
outcome (second compound 1 µM, first compound 0.316 µM): inactive
viability, T/C (second compound 1 µM, first compound 1 µM): 86.7%
viability, T/C (second compound 1 µM, first compound 3.16 µM): 78.4%
viability, T/C (second compound 1 µM, first compound 10 µM): 69%
viability, T/C (second compound 3.16 µM, first compound 0.0316 µM): 20.5%
viability, T/C (second compound 3.16 µM, first compound 0.1 µM): 16.2%
viability, T/C (second compound 3.16 µM, first compound 0.316 µM): 25.4%
viability, T/C (second compound 3.16 µM, first compound 1 µM): 22.2%
viability, T/C (second compound 3.16 µM, first compound 3.16 µM): 8.21%
viability, T/C (second compound 3.16 µM, first compound 10 µM): 14.4%
viability, T/C (second compound 10 µM, first compound 0.0316 µM): 12.6%
viability, T/C (second compound 10 µM, first compound 0.1 µM): 2.97%
viability, T/C (second compound 10 µM, first compound 0.316 µM): 8.79%
viability, T/C (second compound 10 µM, first compound 1 µM): 11.4%
viability, T/C (second compound 10 µM, first compound 3.16 µM): 19.9%
viability, T/C (second compound 10 µM, first compound 10 µM): 5.34%
viability, T/C (second compound 31.6 µM, first compound 0.0316 µM): 9.31%
viability, T/C (second compound 31.6 µM, first compound 0.1 µM): 17.1%
viability, T/C (second compound 31.6 µM, first compound 0.316 µM): 12.9%
viability, T/C (second compound 31.6 µM, first compound 1 µM): 11.6%
viability, T/C (second compound 31.6 µM, first compound 3.16 µM): 23%
viability, T/C (second compound 31.6 µM, first compound 10 µM): 6.81%
viability, T/C (second compound 100 µM, first compound 0.0316 µM): 57.3%
viability, T/C (second compound 100 µM, first compound 0.1 µM): 68.8%
viability, T/C (second compound 100 µM, first compound 0.316 µM): 52%
viability, T/C (second compound 100 µM, first compound 1 µM): 67.2%
viability, T/C (second compound 100 µM, first compound 3.16 µM): 57.6%
viability, T/C (second compound 100 µM, first compound 10 µM): 29.9%

O=C(c1cc(Cc2n[nH]c(=O)c3ccccc23)ccc1F)N1CCN(C(=O)C2CC2)CC1 + Cn1nnc2c(C(N)=O)ncn2c1=O
IC50 (second compound 1 µM): 179 nM
IC50 (second compound 3.16 µM): < 94.9 nM
IC50 (second compound 10 µM): < 94.9 nM
IC50 (second compound 31.6 µM): < 94.9 nM
IC50 (second compound 100 µM): < 94.9 nM
viability, T/C (second compound 1 µM, first compound 0.0949 µM): 77.8%
viability, T/C (second compound 1 µM, first compound 0.3 µM): 22.5%
viability, T/C (second compound 1 µM, first compound 0.949 µM): 23.6%
viability, T/C (second compound 1 µM, first compound 3 µM): 20.8%
viability, T/C (second compound 1 µM, first compound 9.49 µM): 2.93%
viability, T/C (second compound 1 µM, first compound 30 µM): 5.71%
viability, T/C (second compound 3.16 µM, first compound 0.0949 µM): 19.4%
viability, T/C (second compound 3.16 µM, first compound 0.3 µM): 25.9%
viability, T/C (second compound 3.16 µM, first compound 0.949 µM): 23.3%
viability, T/C (second compound 3.16 µM, first compound 3 µM): 3.5%
viability, T/C (second compound 3.16 µM, first compound 9.49 µM): 24.2%
viability, T/C (second compound 3.16 µM, first compound 30 µM): 8.1%
viability, T/C (second compound 10 µM, first compound 0.0949 µM): 24.5%
viability, T/C (second compound 10 µM, first compound 0.3 µM): 23.7%
viability, T/C (second compound 10 µM, first compound 0.949 µM): 21.8%
viability, T/C (second compound 10 µM, first compound 3 µM): 20%
viability, T/C (second compound 10 µM, first compound 9.49 µM): 20.2%
viability, T/C (second compound 10 µM, first compound 30 µM): 5.57%
viability, T/C (second compound 31.6 µM, first compound 0.0949 µM): 24.9%
viability, T/C (second compound 31.6 µM, first compound 0.3 µM): 26.2%
viability, T/C (second compound 31.6 µM, first compound 0.949 µM): 21.8%
viability, T/C (second compound 31.6 µM, first compound 3 µM): 20.8%
viability, T/C (second compound 31.6 µM, first compound 9.49 µM): 20.5%
viability, T/C (second compound 31.6 µM, first compound 30 µM): 3.19%
viability, T/C (second compound 100 µM, first compound 0.0949 µM): 21.8%
viability, T/C (second compound 100 µM, first compound 0.3 µM): 23.7%
viability, T/C (second compound 100 µM, first compound 0.949 µM): 23%
viability, T/C (second compound 100 µM, first compound 3 µM): 21.4%
viability, T/C (second compound 100 µM, first compound 9.49 µM): 2.71%
viability, T/C (second compound 100 µM, first compound 30 µM): 2.88%
